Key:
Settings in all cases: biotinylated peptide 0 to 200 µg.mL, streptavidin-HRP detection
soy pulp = system: soy pulp
Description: (§1) The C-terminus was elongated with a GGGS-CONH2 tail to mimic the GGGS-peptide spacer between the random peptide sequence and the phage protein pIII and to block the negative charge of the carboxyl terminus. […] All synthetic peptides were reconstituted in sterile deionised H2O to a concentration of 2 mg/mL. The ability of biotinylated synthetic peptides (from 0 to 200 µg.mL) to bind to the immobilized purified Bowman-Birk inhibitor, soy pulp and soy whey extracts (and BSA as a negative control) was analyzed in solid phase assays. In this case, the biotinylated synthetic peptides were incubated on BBI coated wells (100 µg.mL) and detected using a streptavidin-HRP conjugate (1:500). Binding and absorbance readings are finally carried out using the TMB substrate as described before.

soy whey = system: soy whey
Description: as §1

BBI = system: BBI
Description: as §1

GAMHLPWHMGTLGGGS-1,2-diaminoethane-biotin [peptide 1]
Dose-dependent binding: binding to soy pulp (soy pulp) | binding to soy whey (soy whey) | binding to BBI (BBI)
